Results as given in PubChem BioAssay AID2305 (GlaxoSmithKline (GSK), 2010).

Test system: P. falciparum 3D7 growth, pLDH absorbance
Assay: blood-stage malaria parasite growth potency – strain 3D7, dose response (AID 2305)

Structure (SMILES)	IC50 [nM]
O=C(Nc1ccccc1)N1CCC(CN2CCOC(c3ccccc3)(c3ccccc3)C2)CC1	210
Cc1cccc2[nH]c(-c3ccc(-c4ccc(CNCCc5ccncc5)cc4)cc3)nc12	210
CC(=O)Nc1ccc(COc2ccc(Nc3ccnc4cc(-c5ccccn5)ccc34)cc2)cc1	200
O=C(NC1CCN(CC2(c3ccc(Cl)cc3)CCC2)CC1)c1ccn[nH]1	420
COc1cccc2cc(C(=O)N[C@@H](CC(C)C)C(=O)N[C@H](/C=N/N3C(=O)CN(Cc4ccccc4)C3=O)CCc3ccccc3)oc12	620
NC(N)=NC(=O)Nc1cc(Cl)c(Br)c(Cl)c1	470
CN(C(=O)c1nn(-c2ccccn2)c2nccc(-c3cccs3)c12)C1CCCCC1	1240
OC(c1n[nH]c(=S)n1-c1ccccc1)C(O)c1n[nH]c(=S)n1-c1ccccc1 (stereo not given)	740
COc1nc(Nc2cccc(C)c2)nc(OC)n1	1010
Cc1ccc(C2(C)CN(CCCOc3cccc(-c4ccc(C(=O)NC(C)C)cc4)c3)CCO2)cc1 (stereo not given)	960
O=C(NCCCNc1nc2ccccc2[nH]1)c1cccc(OC(F)(F)F)c1	570
CC(C)n1ncc2c(C(=O)Nc3ccc(C#N)c(Cl)c3)cc(C3CC3)nc21	960
O=C(Nc1ccc(Cn2ncc(N3CCCNCC3)c(Cl)c2=O)cc1)Nc1cc(Cl)cc(Cl)c1	870
CC1CCCN(C(=O)c2cc(-c3ccccn3)nc3c(Cl)cccc23)C1 (stereo not given)	1080
Cc1cccc2[nH]c(-c3ccc(-c4ccc(NC(=O)Nc5cccc(C#N)c5)cc4)cc3)nc12	110
O=C(Nc1ccc(Cn2nc(Cl)c(N3CCCNCC3)cc2=O)cc1)Nc1ccc(-c2ccccc2)cc1	840
CCc1ccc(-n2c(NC(=O)c3ccccc3)nc3ccc(S(=O)(=O)NC(C)C(C)C)cc32)cc1 (stereo not given)	930
Cc1cc(Nc2ccncc2)n2nc(C)c(-c3ccccc3Cl)c2n1	650
Cc1cc(N(C)CCCN(C)C)nc(Nc2ccc(Br)cc2)n1	640
COc1ccc2nccc([C@@H](O)CN3CCC(NC(=O)/C=C/c4ccc(Cl)c(C(F)(F)F)c4)CC3)c2c1	290
COc1cccc(CCNC(C)Cc2ccc(OCCCCOc3ccccc3)cc2)c1 (stereo not given)	740
COC(=O)[C@@H](NC(=O)[C@H](Cc1ccc(OC)c(OC)c1)Nc1ccc(C#N)c2ccccc12)c1ccc(O)cc1	750
C[C@H](Cc1ccc(OCCCCCCOc2ccccc2)cc1)NC[C@@H](O)c1cc(Br)no1	880
CC(C)(C)C(=O)N1CCN(c2ccc([N+](=O)[O-])c(NC3CC3)c2)CC1	940

Structure (SMILES)	IC50 [nM]
COc1ccc(NC(=O)/C=C/c2ccc(Cl)c(C(F)(F)F)c2)cc1OCCN(C(C)C)C(C)C	630
Clc1ccc(Nc2nc(Nc3ccc(Cl)c(Cl)c3)nc(Sc3nc4ccccc4[nH]3)n2)cc1Cl	490
CC(=O)Nc1nc(C(=O)Nc2cccc(-c3cccc(-c4nc5c(C)cccc5[nH]4)c3)c2)cs1	110
Fc1c(CNCC2CCN(CC3CCCCC3)CC2)cccc1C(F)(F)F	900
N=C(N)CCN(Cc1ccc(Cl)cc1)c1ccc(Cl)cc1	1060
CC(=O)N1N=C(c2[nH]c3ccc(Br)cc3c2C)OC1c1ccccc1 (stereo not given)	780
O=[N+]([O-])c1ccc(C(O)P(=O)(c2ccccc2)c2ccccc2)cc1 (stereo not given)	340
O=C(/C=C/c1ccc(Cl)c(Cl)c1)NCCCCCN1CCN(C(=O)Nc2ccc(C(F)(F)F)cc2)CC1	720
CN1CCCC(OC(=O)c2ccccc2)C1 (stereo not given)	760
CCOC(=O)c1cc(C(=O)NCCCCN2CCC(c3ccc4c(c3OC)CCCC4)CC2)ccc1-c1ccc(C(F)(F)F)cc1	710
CC(C)NCc1ccc(-c2ccc(NC(=O)c3cccc(Cl)c3)cc2)cc1	960
O=C(Nc1ccc(F)cc1)c1nc2ccccc2nc1Cl	1230
COc1ccc2nccc([C@@H](O)CN3CCC(NCC(O)Cc4ccccc4)CC3)c2c1 (stereo not given in full)	670
CN(C)C(=O)c1ccc(CN(Cc2ccc3c(c2)OCCO3)Cc2ccc3c(c2)OCO3)cc1	180
CC(C)c1ccc(NC(=O)NC2CCN(CCCCCNC(=O)/C=C/c3ccc(Cl)c(Cl)c3)CC2)cc1	670
COc1ccc2ccccc2c1CCCCN1CCN(CC(c2ccc(F)cc2)N2CCN(C(C)C)CC2)CC1 (stereo not given)	810
CC1(C)C(=O)Nc2ccccc2N1C(=O)CN1CCN(c2ccccc2O)CC1	1070
N#Cc1ccc(C=NNc2nc3ccccc3[nH]2)cc1	1000
COc1ccc(CNC2CCN(C)CC2)cc1-c1cccc(S(=O)(=O)NCc2ccccc2)c1	720
CN1CCN(c2ccnc3ccc(NC(=O)Cc4cccc(Cl)c4Cl)cc23)CC1	790
O=C(Nc1ccc(C(=O)N2CCN(CCN3CCN(c4cccc(C(F)(F)F)c4)CC3)CC2)cc1)c1ccc(C(F)(F)F)cc1	690
CCc1ccc(CN2CCC(CN(c3ccc(N4CCOCC4)c(F)c3)S(=O)(=O)c3ccc(C(C)(C)CC)cc3)CC2)cc1	710
N#Cc1cncc(-c2nc3c(N4CCC(Cc5ccccc5)CC4)cccc3n2C2CCNC2)c1 (stereo not given)	990
COc1cc(-c2cc3cc(Cl)c(Cl)cc3[nH]2)ccc1C(=O)NCCC1CCCN1C (stereo not given)	970

Structure (SMILES)	IC50 [nM]
c1cncc(Oc2ccc(Nc3ccnc4cc(-c5cccc(CN6CCOCC6)c5)ccc34)cc2)c1	310
COc1ccc(Nc2ccnc3cc(Cl)ccc23)cc1OC	1120
CCN(CC)CCCNc1ncc2c(-c3ccc(NC(=O)Nc4cc(C(F)(F)F)ccc4F)cc3)nn(C)c2n1	220
COc1ccc(C(=O)N2CCC3(CC2)C(=O)N(CC(=O)NCC2CCCCC2)CN3c2ccccc2)c(OC)c1	120
Cc1cc(N)c2cc(NC(=O)c3cc(C(F)(F)F)cc(C(F)(F)F)c3)ccc2n1	90
Cc1cccc2[nH]c(-c3cccc(-c4ccc(CNCc5cnn(-c6ccccc6)n5)cc4)c3)nc12	920
C=CCOC(=O)N1CCC(CNCc2ccc(-c3cccc(-c4nc5c(C)cccc5[nH]4)c3)cc2)C1 (stereo not given)	120
Cc1cccc2[nH]c(-c3ccc(-c4cccc(CNCCCN5CCCC5=O)c4)cc3)nc12	840
COc1c(C2CCN(CCCCNC(=O)C=Cc3cc4cc(Cl)ccc4o3)CC2)ccc2c1CCCC2	1310
Cc1cnc(CCNC(=O)c2cc(-c3ccc(Cl)cc3)cs2)[nH]1	240
CN1CCC(N2CCN(Cc3cccc(-c4ccc(-c5nc6ccc(F)cc6[nH]5)cc4)c3)CC2)CC1	110
CC(=O)Nc1cccc(-c2cn(-c3ccc(OCc4cccc(F)c4)c(Cl)c3)c3ncncc23)c1	70
COc1ccc2nc(-c3cc(-c4ccc(NC(=O)C(C)C)cc4)cnc3N)[nH]c2c1	560
CCOC(=O)c1nc2ccc(SC3CCCCC3)cn2c1Br	1060
CC(C)(C)Oc1ccc(C[C@@H]2NC3(C(=O)N(Cc4ccc(Cl)c(Cl)c4)c4ccccc43)C3C(=O)N(c4ccc(Br)cc4)C(=O)C32)cc1 (stereo not given in full)	1040
COc1cccc(CNC[C@@H](O)[C@H](Cc2ccccc2)NC(=O)c2cc3c4c(c2)c(C(C)C)cn4CCS(=O)(=O)N3C)c1	150
Cc1ccc(C2CC(c3cccs3)=NN2C(=O)c2ccc(Br)o2)cc1 (stereo not given)	890
Cc1ccccc1N1CCN(c2ccc(C(=O)NC(C)C)cn2)CC1	900
CCCC(C)NC(=O)[C@H](CC1CCCCC1)NC(=O)c1ccc(O)c(-c2ccc(OC)cc2)c1 (stereo not given in full)	1130
COc1cccc2c1CCN(CCN1CCC(CNC(=O)c3ccc(-c4ccc(C#N)cc4)cc3)CC1)C2	760
N#Cc1cccc(NC(=O)Nc2ccc(-c3ccc(-c4nc5ccc(C(F)(F)F)cc5[nH]4)cc3)cc2)c1	140
CC(=NNC(=S)NCCc1ccccc1)c1ccccn1	220
C=C[C@]1(C)C[C@@H](OC(=O)NC(=O)C2CCN(C(=O)CSc3ccccc3)CC2)[C@]2(C)[C@H](C)CC[C@]3(CCC(=O)[C@H]32)[C@@H](C)[C@@H]1O	1010
Cc1cccc2[nH]c(-c3ccc(-c4ccc(CN5CCN(C6CCN(C)CC6)CC5)cc4)cc3)nc12	100

Structure (SMILES)	IC50 [nM]
COc1ccc(CCN2CC[C@H](Nc3nc(-c4ccc(F)c(F)c4)nc4ccccc34)C2)cc1S(N)(=O)=O	790
Cc1[nH]c2c(C)cccc2c1C1CCN(CCC2CCN(C(=O)/C=C/c3ccc(Cl)c(Cl)c3)CC2)CC1	640
O=C(NC1CC1)c1ccc(N2CCC(Oc3ccc(F)cc3)CC2)nc1	1090
Cc1ccc2c(C3=CCN(CCCCC4(C)C(=O)Nc5c(F)cccc54)CC3)c(C)[nH]c2c1 (stereo not given)	270
COc1ccc(CCn2c(=N)c(C(=O)NCc3cccnc3)cc3c(=O)n4ccccc4nc32)cc1	880
O=C(Nc1cc(Cl)cc(Cl)c1)c1cc(Cl)c(=O)n(Cc2ccc(Cl)cc2)c1	860
CCCNC[C@@H](O)[C@H](Cc1ccccc1)NC(=O)c1cc(NCC)cc(N2CCCCS2(=O)=O)c1	220
Cc1cccc(Nc2nccc(NCC(O)c3cccc(C(F)(F)F)c3)n2)c1 (stereo not given)	510
CCCC(CNCc1cccc(C)c1)CNc1cc(=O)c2ccccc2[nH]1 (stereo not given)	630
Cn1cc(CN2CCCC(COC(c3ccccc3)c3ccccc3)C2)cn1 (stereo not given)	770
Oc1c(C(Nc2nc3ccccc3s2)c2ccccc2)ccc2cccnc12 (stereo not given)	650
Oc1ccc2nc(Nc3ccccc3)nc(NCCc3ccccc3)c2c1	150
COc1cc(NC(=O)Nc2ccc(Br)cc2C(=O)Nc2ccc(Br)cc2)cc(OC)c1OC	760
CC(=O)OC[C@H]1O[C@@H](C#Cc2ccccc2)[C@H](OC(C)=O)[C@@H](OC(C)=O)[C@@H]1OC(C)=O	280
COc1ccc2nccc([C@@H](O)CN3CCC(NCCOc4cccc(C(F)(F)F)c4Cl)CC3)c2c1	150
Cc1cccc2[nH]c(-c3cccc(-c4cccc(CNCCc5cccn5C)c4)c3)nc12	730
Cc1cccc2[nH]c(-c3cccc(-c4ccc(CNCCNC(=O)c5ccnn5C)cc4)c3)nc12	170
O=c1c2c([nH]c3cc(Cl)ccc13)CCCC2	810
CCCc1cn2c3c(cc(C(=O)N[C@@H](Cc4ccccc4)[C@H](O)CNC4CCCCC4)cc13)N(C)S(=O)(=O)CC2	70
COc1ccc(C(=O)Nc2ccc(Cl)cc2C(=O)Nc2ccncc2)cc1	820
C[C@H](NC(=O)[C@H](Cc1ccccc1)NC(=O)OC(C)(C)C)C(=O)N[C@@H](CC1CCCCC1)C(O)CN (stereo not given in full)	730
Cc1cc(N[C@@H](Cc2ccccc2)C(=O)NC2CCCC2)nc(NCCc2cccs2)n1	1400
N=C(N)c1ccc(Nc2nccc(Nc3nc(-c4ccccc4)cs3)n2)cc1	750
